Measurements reported in PubChem BioAssay (NCI).
“And” between values parts separate entries of the source, which are not always exact repeats. Equal entries are not always repeated.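 These data come from cells grown in 96-well plates and exposed to compound for 48 hours at five concentrations. Here, GI50 denotes the concentration required for 50% inhibition of growth. Definition used: TGI = concentration required for complete inhibition of growth.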

Key:
Test in all cases: DTP human tumour cell line panel, 48 h
HOP-18 NSCLC = test system: HOP-18 NSCLC
LXFL 529 NSCLC = test system: LXFL 529 NSCLC
SNB-78 CNS = test system: SNB-78 CNS
XF 498 CNS = test system: XF 498 CNS
NCI/ADR-RES ovarian = test system: NCI/ADR-RES ovarian
MDA-N = test system: MDA-N
RXF-631 renal = test system: RXF-631 renal

| Structure (SMILES) | TGI (LXFL 529 NSCLC) | TGI (SNB-78 CNS) | GI50 (NCI/ADR-RES ovarian) | TGI (NCI/ADR-RES ovarian) | further results |
| --- | --- | --- | --- | --- | --- |
| COC(=O)C1C(=O)O[C@@H](c2ccc(OC)cc2OC)C1C(=O)OC (stereo not given in full) | > 100 µM | > 100 µM |  |  | TGI (HOP-18 NSCLC): > 100 µM; TGI (XF 498 CNS): > 100 µM |
| O=C1/C(=C/c2ccc(Cl)cc2)CN(C(=O)C(Cl)Cl)C/C1=C\c1ccc(Cl)cc1 |  |  | 0.358 µM | > 32.9 µM |  |
| O=C(CC(=O)C(F)(F)F)c1csc2ccccc12 | > 100 µM | > 100 µM |  |  |  |
| COC(=O)[C@@H](C)C[C@H](Cc1ccccc1)NC(=O)c1csc([C@@H](C[C@H](C(C)C)N(C)C(=O)[C@@H](NC(=O)[C@H]2CCCCN2C)C(C)C)OC(C)=O)n1 |  |  | 0.00383 µM and 0.0025 µM | > 25 µM |  |
| Cc1ccc(NC(=O)c2ccnc(N3CCCC3)c2)cc1-c1ccc(C(=O)NCC2CC2)cc1 |  |  | > 25 µM | > 25 µM |  |
| O=C1/C(=C/C(Cl)=C/c2ccccc2)SC(=S)N1CCc1ccc(O)cc1 |  |  | 2.16 µM | > 100 µM |  |
| CC(C)(O)[C@H]1[C@@H]2OC(=O)[C@H]1[C@]1(O)C[C@H]3OC34C(=O)O[C@H]2[C@@]41C (stereo not given in full) (tested in a mixture with another compound) |  |  |  |  | TGI (MDA-N): > 100 µM |
| CNC1C(O)CC(OC2C/C=C(\C)C/C(C)=C/C=C/CCC(C)CNC(=O)/C=C/C=C/C2C)OC1C (stereo not given) | 0.308 µM | 3.43 µM |  |  | TGI (HOP-18 NSCLC): 3.08 µM; TGI (MDA-N): 0.367 µM; TGI (RXF-631 renal): 0.401 µM; TGI (XF 498 CNS): 3.76 µM |
| ON(CCc1ccccn1)Cc1ccccc1 |  |  |  | > 100 µM | TGI (MDA-N): > 100 µM |
| CSC(=S)NNC(=O)c1ccncc1 | 29.3 µM | > 100 µM |  |  | TGI (HOP-18 NSCLC): > 100 µM; TGI (RXF-631 renal): > 100 µM; TGI (XF 498 CNS): 50 µM |
| Cc1cc(C)n(-c2c(O)ccc(O)c2-n2nc(C)cc2C)n1 | > 100 µM | > 100 µM |  |  | TGI (RXF-631 renal): > 100 µM; TGI (XF 498 CNS): > 100 µM |
| O=C1C=CC2(C=C1)CCN=c1c(O)c3c(c(O)c12)=NC=N3 |  |  | 22.7 µM and > 100 µM | > 100 µM |  |
| Cn1cc(C2=C(c3c4n(c5ccccc35)CCC(CN)CC4)C(=O)NC2=O)c2ccccc21 (stereo not given) |  |  | > 25 µM | > 25 µM |  |
| CC1OC(O)CC(OC(=O)c2ccccc2)C1OC(=O)c1ccccc1 (stereo not given) | 29.8 µM |  |  |  | TGI (HOP-18 NSCLC): 56.8 µM; TGI (XF 498 CNS): 34.6 µM |
| CCC(=C(c1ccc(OCc2ccccc2)cc1)c1ccc(OCc2ccccc2)cc1)c1ccc(OC)cc1 | > 100 µM | > 100 µM |  |  | TGI (XF 498 CNS): > 100 µM |
| COc1cccc2c1c1nc3cc(C)c(C)cc3nc1n2CCN(C)C |  |  | 1.22 µM | 13.3 µM |  |
| Cc1cccc(N=C2c3cc([N+](=O)[O-])ccc3-c3c2cc([N+](=O)[O-])cc3[N+](=O)[O-])c1 |  |  | 12.5 µM | > 100 µM |  |
| O=C(O)c1cccc(CC(Br)C(=O)O)c1 (stereo not given) |  |  |  | > 100 µM | TGI (MDA-N): > 100 µM |
| Clc1ccc(CO/N=C(\Cn2ccnc2)c2ccc(Cl)cc2Cl)c(Cl)c1 |  |  | 1.27 µM | 2.9 µM |  |
| COC(=O)C1=CC2OC1(C)C1(CC1)C2=O (stereo not given) | 32.9 µM |  |  |  | TGI (XF 498 CNS): 28.1 µM |

| Structure (SMILES) | TGI (LXFL 529 NSCLC) | TGI (SNB-78 CNS) | GI50 (NCI/ADR-RES ovarian) | TGI (NCI/ADR-RES ovarian) | further results |
| --- | --- | --- | --- | --- | --- |
| CC(=O)Nc1ccc(/C=C/C(=O)c2sc(C(N)=S)nc2C)cc1 |  | > 100 µM |  |  | TGI (HOP-18 NSCLC): > 100 µM |
| COc1ccc(-c2nc(-c3nc4cc(C)c(C)cc4[nH]3)cc3c2[nH]c2ccccc23)cc1 |  |  | 6.37 µM | > 100 µM |  |
| CC(C)=CCC/C(C)=C/CC/C(=C/COP(=O)(OCc1ccc([N+](=O)[O-])o1)N(C)CCCCCl)C(C)(C)C (stereo not given) |  |  | 16.3 µM | 38.5 µM |  |
| O=C(O)CCC1CCC(c2cc(F)ccc2F)(S(=O)(=O)c2ccc(Cl)cc2)CC1 (stereo not given) |  |  | 25.8 µM and > 74.3 µM | 99.7 µM and > 100 µM |  |
| [N-]=[N+]=CC(=O)OCC(N)C(=O)O (stereo not given) |  |  | 3.2 µM | > 100 µM |  |
| Cc1ccc(C2=NO[C@@H]3C(=O)N(c4ccc(Cc5ccc(N6C(=O)[C@H]7C(c8ccc(C)cc8)=NO[C@H]7C6=O)cc5)cc4)C(=O)[C@H]23)cc1 | > 100 µM | > 100 µM |  |  | TGI (HOP-18 NSCLC): > 100 µM; TGI (RXF-631 renal): > 100 µM; TGI (XF 498 CNS): > 100 µM |
| CO[C@H]1CC[C@@]2(C)C(=CC[C@H]3[C@@H]4C[C@H](O)C[C@@]4(C)CC[C@@H]32)C1 |  |  | 4.17 µM | 39.9 µM |  |
| CC[C@H](C)C(=O)O[C@H]1CCC=C2C=C[C@H](C)C(CCC3C[C@@H](O)CC(=O)O3)[C@H]21 (stereo not given in full) |  |  | 2.3 µM | > 100 µM |  |
| CC1C2=CC=C(O2)C(C)(C)C2=CC=C(O2)C(C)(C)C2=CC=C(O2)C(C)(C)C2=CC=C1O2 | > 100 µM | > 100 µM |  |  | TGI (HOP-18 NSCLC): > 100 µM; TGI (XF 498 CNS): > 100 µM |
| COC(=O)Nc1nc2ccc(Oc3ccc(NC(=O)Nc4cccc(Cl)c4)cc3)cc2[nH]1 |  |  | 5.17 µM | > 25 µM |  |
| CCCCCCCCCC(=O)OCC1OC(n2cc(F)c(=O)[nH]c2=O)C(N)C(OC(=O)CCCCCCCCC)C1O (stereo not given) | 30.2 µM | 36.8 µM |  |  |  |
| Nc1nc(N)c(-c2ccc(Cl)cc2)c(CCC(=O)Nc2cccc(C(F)(F)F)c2)n1 | > 100 µM | > 100 µM |  |  | TGI (HOP-18 NSCLC): > 100 µM; TGI (RXF-631 renal): > 100 µM; TGI (XF 498 CNS): > 100 µM |
| COC(=O)C#Cc1ccc([N+](=O)[O-])cc1 |  |  |  | 21.8 µM | TGI (MDA-N): 8.27 µM |
| CN(C)CC1CCn2c(c(C3=C(c4cn(C)c5ccccc45)C(=O)NC3=O)c3ccccc32)C1 (stereo not given) |  |  | 5.17 µM | 16.6 µM |  |
| CC(=O)OCC1OC(S[As](C)C)C(OC(C)=O)C1OC(C)=O (stereo not given) |  |  | 0.259 µM | 2.48 µM |  |
| Cc1ccc2[nH]c(=O)c(C(C#N)c3ccccc3)nc2c1 (stereo not given) | > 100 µM | 80.1 µM |  |  | TGI (HOP-18 NSCLC): > 100 µM; TGI (RXF-631 renal): > 100 µM |
| CO[C@H](C(=O)N[C@@H](CCCCNC(=O)OCc1ccccc1)C(=O)OC(C)(C)C)[C@@H]1Cc2cc3cc(OC4CC(OC5CC(O)C(O)C(C)O5)C(O)C(C)O4)c(C)c(O)c3c(O)c2C(=O)[C@H]1OC1CC(OC2CC(OC3CC(C)(O)C(O)C(C)O3)C(O)C(C)O2)C(O)C(C)O1 (stereo not given in full) |  |  |  | > 10 µM |  |
| CN=S(=O)(C[C@]1(O)CC2OC1C1OC(C)(C)OC21)c1ccccc1 (stereo not given in full) | > 100 µM | > 100 µM |  |  | TGI (XF 498 CNS): > 100 µM |
| COC(=O)c1c2c(c(C)[n+]([O-])c1C)C(=O)C(NCc1ccc(F)c(F)c1)=CC2=O |  |  | 2.3 µM | 6.86 µM |  |
